Measurements as given in US11795190B2, “D-glycero-B-D-heptose 1-phosphate (HMP) conjugates and use for targeted immune modulation” (NATIONAL RESEARCH COUNCIL OF CANADA, priority 2017, dated 2023).

Tests used:
[1] = system: human macrophage cells (THP-1); test: IL-8 ELISA in THP-1 cells after digitonin-permeabilised stimulation; type: cell-based; settings: FIG. 15, higher (150 μM) concentrations, digitonin 20 min, IL-8 after 6 hours
Description: FIG. 15. Stimulation of human macrophages by compounds/products according to the invention. Human macrophage cells (THP-1) were stimulated for 20 minutes in permeabilization buffer (5 μg/mL digitonin) in the presence of water, 39.8 μM of the Nod1 agonist C12-iE-DAP (which stimulates in a TIFA-independent manner), or either 30 μM or 150 μM of synthetic compound according to the invention. Treatment was removed, cells were washed, and cells were incubated for 6 hours in complete media before the IL-8 levels in culture supernatants were measured by ELISA. The results are the mean and standard error of the mean of three technical replicates. Nod1 agonist: C12-iE-DAP (20 μg/ml, 39.8 μM); JS-7: JS-7:D-glycero-β-D-manno-heptose-phosphate; JS-10: 7-O-(Aminoethyl)-D-glycero-β-D-manno-heptopyranose phosphate; JS-14: Biotin-7-O-(aminoethyl)-D-glycero-β-D-manno-heptopyranose phosphate.

[2] = system: HCT 116 cells deficient in TIFA protein expression (TIFA KO); test: IL-8 ELISA in TIFA knockout HCT 116 cells; type: cell-based, human; settings: TIFA KO HCT 116
Description: (§1) Wild type (WT) or TIFA knockout (TIFA KO) cells were treated with compounds in the presence of digitonin for 20 min, treatment was removed, cells were washed and then cultured in normal medium without the synthetic compounds for 6 hr before IL-8 levels in culture supernatants were measured by ELISA. (A) Cells were treated with water or 10 μg/mL of the indicated compound. Data are means±standard error mean of technical triplicates. (B) Cells were treated with the NOD1 agonist C12-iE-DAP (39.8 μM) or with two different molar concentrations of compounds (30 μM or 150 μM). Two batches of dd-β-HBP and dd-β-HMP synthesized independently of one another were tested (batch #1 and batch #2) to assess consistency of the chemical synthesis. Data are means±standard error mean of two (150 μM treatment) or three (all other treatments) independent experiments. Nod1 agonist: C12-iE-DAP (20 μg/ml, 39.8 μM); JS-12: D-glycero-D-manno-heptose; JS-2: D-glycero-D-manno-heptose 7-phosphate; JS-7:D-glycero-β-D-manno-heptose-phosphate; JS-8: d-glycero-α-d-manno-heptose-phosphate; JS-9: β-d-mannose phosphate; JS-6:d-glycero-β-d-manno heptose 1,7-biphosphate; JS-5: d-glycero-α-d-manno heptose 1,7-biphosphate.
(§2) FIG. 11. Stimulation of human colonic epithelial cells by compounds/products according to the invention. Human colonic epithelial cells (HCT 116) that were either wild type (WT) or deficient in TIFA protein expression (knockout, KO) were stimulated for 20 minutes in permeabilization buffer (5 μg/mL digitonin) in the presence of water or 10 μg/mL, 30 μg/mL, or 50 μg/mL of indicated synthetic compounds according to the invention. Treatment was removed, cells were washed, and cells were incubated for 6 hours in complete media before IL-8 levels in culture supernatants was measured by ELISA. The results are the mean±standard error of the mean of three technical replicates. JS-10: 7-O-(Aminoethyl)-D-glycero-β-D-manno-heptopyranose phosphate; JS-11: 7-O-(Aminoethyl) -D-glycero-D-manno-heptopyranose; JS-12: D-glycero-D-manno-heptose; Js-13: pH-Rhodo -7-O-(aminoethyl)-D-glycero-β-D-manno-heptopyranose phosphate.
(§3) FIG. 13. Stimulation of human colonic epithelial cells by compounds/products according to the invention. Human colonic epithelial cells (HCT 116) that were either wild type (WT) or deficient in TIFA protein expression (knockout, TIFA KO) were stimulated for 20 minutes in permeabilization buffer (5 μg/mL digitonin) in the presence of water, 20 μg/mL of the Nod1 agonist C12-iE-DAP (39.8 μM, which induces inflammation in a TIFA-independent manner) or 30 μM or 150 μM of synthetic compound according to the invention. Treatment was removed, cells were washed, and cells were incubated for 6 hours in complete media before IL-8 levels in culture supernatants were measured by ELISA. The results are the mean±standard error of the mean of two (150 μM treatment) or three (all other treatments) independent experiments. #=none detected, JS-10: 7-O-(Aminoethyl)-d-glycero-β-d-manno-heptopyranose phosphate; JS-14: Biotin-7-O-(aminoethyl)-d-glycero-β-d-manno-heptopyranose phosphate, Nod1 agonist: C12-iE-DAP (20 μg/ml, 39.8 μM).
as §3, with “16.” for “13.”, “of” for “of the mean of two (150 μM treatment) or”, “technical replicates. […]” for “(all other treatments) independent experiments. #=none detected, JS-10: 7-O-(Aminoethyl)-d-glycero-β-d-manno-heptopyranose phosphate; JS-14: Biotin-7-O-(aminoethyl)-d-glycero-β-d-manno-heptopyranose phosphate, Nod1 agonist: C12-iE-DAP (20 μg/ml, 39.8 μM).”

[3] = system: human colonic epithelial cells (HCT 116), wild type; test: IL-8 ELISA in wild type HCT 116 cells after digitonin-permeabilised stimulation; type: cell-based; settings: FIG. 11; WT HCT 116; 10, 30 or 50 μg/mL, digitonin 20 min, IL-8 after 6 hours
Description: as §1, §2
FIG. 13. […] Treatment was removed, cells were washed, and cells were incubated for 6 hours in complete media before IL-8 levels in culture supernatants were measured by ELISA. The results are the mean±standard error of the mean of two (150 μM treatment) or three (all other treatments) independent experiments. #=none detected, JS-10: 7-O-(Aminoethyl)-d-glycero-β-d-manno-heptopyranose phosphate; JS-14: Biotin-7-O-(aminoethyl)-d-glycero-β-d-manno-heptopyranose phosphate, Nod1 agonist: C12-iE-DAP (20 μg/ml, 39.8 μM).
FIG. 16. […] Treatment was removed, cells were washed, and cells were incubated for 6 hours in complete media before IL-8 levels in culture supernatants were measured by ELISA. […]

[4] = system: TIFA knockout (TIFA KO) HEK 293T cells encoding an NF-κB-driven luciferase reporter gene; test: NF-κB-driven luciferase reporter assay in TIFA knockout HEK 293T cells; type: cell-based, human; settings: TIFA KO cells
Description: FIGS. 10A-B. Effect of chemically synthesised analogues on human embryonic kidney cells (HEK 293T) encoding an NF-κB-driven luciferase reporter gene. NF-κB luciferase activity was measured in wild type (WT) or TIFA knockout (TIFA KO) cells treated with compounds in the presence of digitonin for 20 min, washed, and then cultured in normal medium without the synthetic compounds for 6 hrs after treatment, before luciferase activity was measured. (A) Cells were treated with 10 μg/mL of the indicated compound. Data are means±standard error mean of technical triplicates. (B) Cells were treated with two different molar concentrations of compound (30 μM or 150 μM). Two batches of DD-β-HBP and DD-β-HMP synthesized independently of one another were tested (batch #1 and batch #2) to assess consistency of the chemical synthesis. Data are means±standard error mean of technical triplicates and are representative of three independent experiments. JS-12: D-glycero-D-manno-heptose; JS-2: D-glycero-D-manno-heptose 7-phosphate; JS-7:D-glycero-β-D-manno-heptose-phosphate; JS-8: D-glycero-α-D-manno-heptose-phosphate; JS-9: β-D-mannose phosphate; JS-6:D-glycero-β-D-manno heptose 1,7-biphosphate; JS-5: D-glycero-α-D-manno heptose 1,7-biphosphate.

NCCOC[C@@H](O)C1O[C@@H](OP(=O)([O-])[O-])C(O)[C@@H](O)[C@@H]1O.[Na+].[Na+] (stereo partly drawn) [JS-10a, 7-O-(Aminoethyl)-D-glycero-β-D-manno-heptopyranose phosphate]
inflammatory response (IL-8 in culture supernatant) [1]: stimulate an inflammatory response
activity in TIFA KO cells (IL-8), TIFA dependence ([2]; FIG. 11, 10, 30 or 50 μg/mL): relative absence of activity
activity in TIFA KO cells (IL-8), TIFA dependence ([2]; FIG. 13, 30 μM or 150 μM (Nod1 agonist 39.8 μM)): relative absence of activity
inflammatory response (IL-8 in culture supernatant) [3]: modest inflammatory response
activity in TIFA KO cells (NF-κB luciferase), TIFA dependence ([4]; FIG. 12, 10, 30 or 50 μg/mL): relative absence of activity
activity in TIFA KO cells (NF-κB luciferase), TIFA dependence ([4]; FIG. 14, 30 μM or 150 μM): relative absence of activity
